Data reported in US10857149B2, “Liquid formulations of salts of 1-[2-(2,4-dimethylphenylsulfanyl)phenyl]-piperazine” (H. Lundbeck A/S, priority 2009, dated 2020).
Entries after “also recorded” stand apart in the source; their conditions may differ. Structures can show the parent of a compound that is named as a salt. Where two headings read alike, the source gives them in different places.

What was measured:
[1] = room temperature, previously known salt forms, Table 2 (WO 2008/113359), cited from earlier work
[2] = Crystal form behaviour on exposure to water / aqueous slurry; type: physicochemical; details: exposed to water / aqueous slurry
[3] = Room temperature (aqueous) solubility of salt forms; type: physicochemical; details: for aqueous solubility: concentration equivalent to free base; for Solubility: lactate forms, Table 1; for pH at the solubility value: printed in the solubility cell
[4] = depressed patients; cited from earlier work
serotonin transporter = serotonin transporter (Homo sapiens, UniProt P31645); details: cited from earlier work
5-HT3 receptor = target: T1, 5-HT3 receptor (Homo sapiens, UniProt P46098); details: listed as compound I; cited from earlier work
T1 sequence (P46098 24-478): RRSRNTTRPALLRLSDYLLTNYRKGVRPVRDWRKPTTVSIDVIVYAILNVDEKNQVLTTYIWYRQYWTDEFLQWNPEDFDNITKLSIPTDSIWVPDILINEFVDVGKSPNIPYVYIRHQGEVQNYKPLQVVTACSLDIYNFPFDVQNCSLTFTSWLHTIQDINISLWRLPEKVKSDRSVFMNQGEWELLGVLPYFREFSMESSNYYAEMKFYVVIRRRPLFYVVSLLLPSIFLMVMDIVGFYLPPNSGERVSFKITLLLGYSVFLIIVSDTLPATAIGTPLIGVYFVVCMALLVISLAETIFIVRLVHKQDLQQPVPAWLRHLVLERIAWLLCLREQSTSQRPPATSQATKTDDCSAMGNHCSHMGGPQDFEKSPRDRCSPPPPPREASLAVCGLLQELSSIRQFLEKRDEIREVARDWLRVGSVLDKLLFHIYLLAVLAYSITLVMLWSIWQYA

[5] = system: extracellular levels of serotonin, noradrenaline, dopamine and acetylcholine; details: rat brains; cited from earlier work

serotonin transporter, sequence (P31645 whole entry): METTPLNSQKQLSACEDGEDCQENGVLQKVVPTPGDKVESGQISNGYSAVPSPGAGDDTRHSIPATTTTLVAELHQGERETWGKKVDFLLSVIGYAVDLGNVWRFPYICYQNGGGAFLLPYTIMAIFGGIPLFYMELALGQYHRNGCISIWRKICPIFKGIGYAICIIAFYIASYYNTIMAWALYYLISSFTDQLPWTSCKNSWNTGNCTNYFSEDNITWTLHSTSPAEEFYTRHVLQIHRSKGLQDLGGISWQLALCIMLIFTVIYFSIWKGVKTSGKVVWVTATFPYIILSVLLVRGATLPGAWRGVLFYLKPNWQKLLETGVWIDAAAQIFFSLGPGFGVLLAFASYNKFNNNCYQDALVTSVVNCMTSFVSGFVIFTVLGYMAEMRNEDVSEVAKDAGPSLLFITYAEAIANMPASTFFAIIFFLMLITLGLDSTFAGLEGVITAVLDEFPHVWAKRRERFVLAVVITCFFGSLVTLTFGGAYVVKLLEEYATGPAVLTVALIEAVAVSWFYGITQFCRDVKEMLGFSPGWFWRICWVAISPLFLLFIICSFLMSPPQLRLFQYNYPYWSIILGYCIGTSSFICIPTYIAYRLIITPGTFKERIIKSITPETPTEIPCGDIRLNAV

Cc1ccc(Sc2ccccc2N2CCNCC2)c(C)c1 [L-(+)-tartrate, 1-[2-(2,4-dimethyl-phenylsulfanyl)-phenyl] piperazine]
Solubility [1]: ~0.4 mg base/mL

CC(O)C(=O)O.Cc1ccc(Sc2ccccc2N2CCNCC2)c(C)c1 [DL-lactate α, 1-[2-(2,4-dimethyl-phenylsulfanyl)-phenyl] piperazine, DL-Lactate]
transformation of crystal form in water ([2]; listed as α form): transformed into the β form in the aqueous slurry

C[C@H](O)C(=O)O.Cc1ccc(Sc2ccccc2N2CCNCC2)c(C)c1 [L-lactate MH2, 1-[2-(2,4-dimethyl-phenylsulfanyl)-phenyl] Piperazine, L-Lactate]
aqueous solubility [3]: 26 mg/mL | Solubility ([3]; room temperature): 26 mg base/mL | pH at the solubility value ([3]; room temperature): 5.2

Cc1ccc(Sc2ccccc2N2CCNCC2)c(C)c1 [Phosphate, 1-[2-(2,4-dimethyl-phenylsulfanyl)-phenyl] piperazine]
Solubility [1]: ~1 mg base/mL

CC(O)C(=O)O.Cc1ccc(Sc2ccccc2N2CCNCC2)c(C)c1 [DL-lactate MH, 1-[2-(2,4-dimethyl-phenylsulfanyl)-phenyl] Piperazine, DL-Lactate]
transformation of crystal form in water [2]: transformed into the beta form in aqueous slurry

Cc1ccc(Sc2ccccc2N2CCNCC2)c(C)c1 [Fumarate, 1-[2-(2,4-dimethyl-phenylsulfanyl)-phenyl] piperazine]
Solubility [1]: 0.4 mg base/mL

C[C@H](O)C(=O)O.Cc1ccc(Sc2ccccc2N2CCNCC2)c(C)c1 [L-lactate AH1, 1-[2-(2,4-dimethyl-phenylsulfanyl)-phenyl] Piperazine, L-Lactate]
transformation of crystal form in water ([2]; listed as AH1): transforms into monohydrate when exposed to water

Cc1ccc(Sc2ccccc2N2CCNCC2)c(C)c1 [Nitrate, 1-[2-(2,4-dimethyl-phenylsulfanyl)-phenyl] piperazine]
Solubility [1]: ~0.8 mg base/mL

Cc1ccc(Sc2ccccc2N2CCNCC2)c(C)c1 [Meso-tartrate, 1-[2-(2,4-dimethyl-phenylsulfanyl)-phenyl] piperazine]
Solubility [1]: ~0.7 mg base/mL

Cc1ccc(Sc2ccccc2N2CCNCC2)c(C)c1 [D-(−)-tartrate, 1-[2-(2,4-dimethyl-phenylsulfanyl)-phenyl] piperazine]
Solubility [1]: ~0.4 mg base/mL

Br.Cc1ccc(Sc2ccccc2N2CCNCC2)c(C)c1 [HBr addition salt]
level of sleep and sexually related adverse events [4]: surprisingly low level

C[C@H](O)C(=O)O.Cc1ccc(Sc2ccccc2N2CCNCC2)c(C)c1 [L-lactate MH1, 1-[2-(2,4-dimethyl-phenylsulfanyl)-phenyl] Piperazine, L-Lactate]
Solubility, bound given for a form that could not be measured ([3]; room temperature, MH1 transforms into MH2 in aqueous slurry): na (>26) mg base/mL | transformation of crystal form in water ([2]; listed as MH1): transforms into the MH2 in aqueous slurry

Cc1ccc(Sc2ccccc2N2CCNCC2)c(C)c1 [HBr, β-form, 1-[2-(2,4-dimethyl-phenylsulfanyl)-phenyl] piperazine]
Solubility [1]: 1.2 mg base/mL

Cc1ccc(Sc2ccccc2N2CCNCC2)c(C)c1 [Maleate, 1-[2-(2,4-dimethyl-phenylsulfanyl)-phenyl] piperazine]
Solubility [1]: ~1 mg base/mL

CC(O)C(=O)O.Cc1ccc(Sc2ccccc2N2CCNCC2)c(C)c1 [DL-lactate γ, 1-[2-(2,4-dimethyl-phenylsulfanyl)-phenyl] Piperazine, DL-Lactate]
transformation of crystal form in water ([2]; listed as γ form): transforms into the beta form in aqueous slurry

Cc1ccc(Sc2ccccc2N2CCNCC2)c(C)c1 [HBr, α-form, 1-[2-(2,4-dimethyl-phenylsulfanyl)-phenyl] piperazine]
Solubility [1]: 2.0 mg base/mL

Cc1ccc(Sc2ccccc2N2CCNCC2)c(C)c1 [Sulphate, 1-[2-(2,4-dimethyl-phenylsulfanyl)-phenyl] piperazine]
Solubility [1]: ~0.1 mg base/mL

Cc1ccc(Sc2ccccc2N2CCNCC2)c(C)c1 [HCl, MH, 1-[2-(2,4-dimethyl-phenylsulfanyl)-phenyl] piperazine]
Solubility [1]: 2.0 mg base/mL

Cc1ccc(Sc2ccccc2N2CCNCC2)c(C)c1 [HCl, 1-[2-(2,4-dimethyl-phenylsulfanyl)-phenyl] piperazine]
Solubility [1]: 3.0 mg base/mL

Cc1ccc(Sc2ccccc2N2CCNCC2)c(C)c1 [Compound I, 1-[2-(2,4-dimethylphenylsulfanyl)phenyl]piperazine]
Solubility ([1]; listed as Crystalline base): 0.1 mg base/mL | action at the serotonin transporter (serotonin transporter): inhibition | action at the serotonin transporter (serotonin transporter; listed as compound I): inhibitor | action at the 5-HT3 receptor (5-HT3 receptor): antagonist; also recorded: antagonism | extracellular levels of serotonin, noradrenaline, dopamine and acetylcholine [5]: increase

Cc1ccc(Sc2ccccc2N2CCNCC2)c(C)c1 [Mesylate, 1-[2-(2,4-dimethyl-phenylsulfanyl)-phenyl] piperazine]
Solubility [1]: >45 mg base/mL

CC(O)C(=O)O.Cc1ccc(Sc2ccccc2N2CCNCC2)c(C)c1 [DL-lactate β, 1-[2-(2,4-dimethyl-phenylsulfanyl)-phenyl] Piperazine, DL-Lactate]
aqueous solubility [3]: 8 mg/mL | Solubility ([3]; room temperature): 8 mg base/mL | pH at the solubility value ([3]; room temperature): 6
